One data set concerns Helicoverpa armigera. The data set can be described thus: Insecticidal activity against Helicoverpa armigera assessed as growth inhibition. Format: functional, organism-based.
Data set [1] is described as follows: Hemolytic activity in human type A RBC assessed as hemolysis after 1 hr by microtitre plate. Type of data set: ADME, cell-based. The following applies: Erythrocyte.
A short description of data set [2]: Hemolytic activity in human type A RBC assessed as concentration required to cause 75% hemolysis after 1 hr by microtitre plate. Type of data set: ADME, cell-based. The following applies: erythrocyte.
A further data set relates to Helicoverpa punctigera. The data set can be described thus: Insecticidal activity against Helicoverpa punctigera assessed as inhibition of development of larvae at 0.825 umol/g after 16 days. Format: functional, organism-based.
For data set [3], the system named is Human immunodeficiency virus 1. The data set can be described thus: Antiviral activity against HIV1 infected in human CEM-SS cells assessed as protection against virus-induced cytopathic effect by XTT method. The conditions noted are these: Human immunodeficiency virus 1, CEM-SS. Type of data set: functional, organism-based.
A further data set has as its system CEM-SS (Homo sapiens). The data set can be described thus: Cytotoxicity against human CEM-SS cells.

Calls of active or inactive are those of the source. The rule behind the calls is not given here. Where a SMILES comes first, the peptide text is derived from it. Bridges are numbered along the chain shown (N, C = ends).

As to `CC[C@H](C)[C@@H]1NC(=O)[C@@H]2CCCN2C(=O)[C@H](Cc2c[nH]c3ccccc23)NC(=O)[C@H]([C@@H](C)O)NC(=O)[C@@H]2CSSC[C@@H]3NC(=O)[C@](C)([C@@H](C)O)NC(=O)[C@H](CCC(=O)O)NC(=O)CNC(=O)[C@@H]4CSSC[C@H](NC(=O)CNC(=O)[C@@H]5CCCN5C(=O)[C@H]([C@@H](C)O)NC(=O)[C@H](CC(N)=O)NC(=O)[C@H](CSSC[C@H](NC1=O)C(=O)N[C@@H]([C@@H](C)O)C(=O)N[C@@H](CCCNC(=N)N)C(=O)N[C@@H](CC(=O)O)C(=O)NCC(=O)N[C@@H](CC(C)C)C(=O)N1CCC[C@H]1C(=O)N[C@@H](C(C)C)C(=O)N4)NC(=O)[C@H]([C@@H](C)O)NC(=O)CNC(=O)CNC(=O)[C@H](Cc1ccccc1)NC3=O)C(=O)N[C@@H](CO)C(=O)N2`, in the data set with Helicoverpa armigera, the outcome was Active.

Usually IC50 stands for the concentration needed to halve the response being measured. On to `CC[C@H](C)[C@@H]1NC(=O)[C@H](C)NC(=O)[C@H](C)NC(=O)[C@H](CO)NC(=O)[C@H]([C@@H](C)CC)NC(=O)[C@@H]2CSSC[C@@H]3NC(=O)[C@H](C(C)C)NC(=O)[C@H](CCCCN)NC(=O)[C@H](CO)NC(=O)[C@H](CCCCN)NC(=O)[C@@H]4CSSC[C@H](NC(=O)[C@H](CO)NC(=O)[C@H](CCC(=O)O)NC(=O)CNC(=O)[C@H](CSSC[C@H](NC(=O)CNC1=O)C(=O)N[C@@H](CO)C(=O)N4)NC(=O)[C@@H]1CCCN1C(=O)[C@H]([C@@H](C)CC)NC(=O)CNC(=O)[C@H](CC(N)=O)NC(=O)[C@H](CCCNC(=N)N)NC(=O)[C@H](Cc1ccc(O)cc1)NC3=O)C(=O)N[C@@H](C(C)C)C(=O)N[C@@H](Cc1c[nH]c3ccccc13)C(=O)N[C@@H]([C@@H](C)CC)C(=O)N1CCC[C@H]1C(=O)N2` [CYCLOVIOLACIN O13] (cyclo(AAIGCSCKSKVCYRNGIPCGESCVWIPCIS); disulfide 5-19, 7-23, 12-28), for which the IC50 in data set [1] came out at 11 µM.

Turning to `CC(C)C[C@@H]1NC(=O)CNC(=O)[C@H](CC(N)=O)NC(=O)[C@H](Cc2cnc[nH]2)NC(=O)[C@H]([C@@H](C)O)NC(=O)[C@@H]2CSSC[C@@H]3NC(=O)[C@H]([C@@H](C)O)NC(=O)CNC(=O)CNC(=O)[C@H](Cc4ccccc4)NC(=O)[C@@H]4CSSC[C@H](NC(=O)[C@H]([C@@H](C)O)NC(=O)[C@H](CSSC[C@H](NC(=O)[C@H]([C@@H](C)O)NC(=O)[C@@H]5CCCN5C1=O)C(=O)NCC(=O)N[C@@H](CCC(=O)O)C(=O)N[C@@H]([C@@H](C)O)C(=O)N4)NC(=O)CNC(=O)[C@@H]1CCCN1C(=O)[C@H]([C@@H](C)O)NC(=O)[C@H](CC(N)=O)NC3=O)C(=O)N[C@@H](CC(=O)O)C(=O)N1CCC[C@H]1C(=O)N[C@@H](Cc1c[nH]c3ccccc13)C(=O)N1CCC[C@H]1C(=O)N[C@@H](C(C)C)C(=O)N2` [CYCLOVIOLACIN O24] (cyclo(CDPWPVCTHNGLPTCGETCFGGTCNTPGCT); disulfide 1-19, 7-24, 15-29), in data set [2], the Activity is 25 µM.

For `CC(C)C[C@@H]1NC(=O)CNC(=O)[C@H](CC(N)=O)NC(=O)[C@H](CCCNC(=N)N)NC(=O)[C@H]([C@@H](C)O)NC(=O)[C@H](CS)NC(=O)[C@H](C(C)C)NC(=O)[C@@H]2CCCN2C(=O)[C@H](CCC(=O)O)NC(=O)[C@H](CO)NC(=O)[C@H](CS)NC(=O)[C@H]([C@@H](C)O)NC(=O)[C@H](CS)NC(=O)CNC(=O)[C@@H]2CCCN2C(=O)[C@H]([C@@H](C)O)NC(=O)[C@H](CC(N)=O)NC(=O)[C@H](CS)NC(=O)[C@H]([C@@H](C)O)NC(=O)CNC(=O)CNC(=O)[C@H](C(C)C)NC(=O)[C@H](CS)NC(=O)[C@H]([C@@H](C)O)NC(=O)[C@H](CCC(=O)O)NC(=O)CNC(=O)[C@H](CS)NC(=O)[C@H](C(C)C)NC(=O)[C@@H]2CCCN2C1=O` [KALATA B1], in the data set on Helicoverpa punctigera, the result was Active.

A word on the EC50: it is the midpoint of the concentration-response curve. Regarding `CC(C)C[C@@H]1NC(=O)[C@H](CC(C)C)NC(=O)[C@@H]2CSSC[C@@H]3NC(=O)[C@H]([C@@H](C)O)NC(=O)[C@@H]4CSSC[C@H](NC(=O)[C@H](CC(N)=O)NC(=O)[C@H](CC(C)C)NC(=O)[C@H](C(C)C)NC(=O)[C@H](CO)NC(=O)CNC(=O)[C@H](CC(=O)O)NC(=O)[C@H](CCCCN)NC(=O)[C@H]([C@@H](C)O)NC(=O)[C@H](CSSC[C@H](NC(=O)[C@H]([C@@H](C)O)NC(=O)CNC1=O)C(=O)N[C@@H](Cc1ccc(O)cc1)C(=O)N[C@@H]([C@@H](C)O)C(=O)N[C@@H]([C@@H](C)O)C(=O)NCC(=O)N4)NC(=O)[C@H](C(C)C)NC(=O)[C@H](CCCNC(=N)N)NC(=O)[C@H](Cc1ccc(O)cc1)NC(=O)[C@H](CCCCN)NC(=O)[C@H](CC(N)=O)NC3=O)C(=O)NCC(=O)N[C@@H](CCC(=O)O)C(=O)N[C@@H]([C@@H](C)O)C(=O)N2` [KALATA B8] (cyclo(CGETCLLGTCYTTGCTCNKYRVCTKDGSVLN); disulfide 1-15, 5-17, 10-23), in data set [3], the half-maximal effective concentration (EC50) worked out at 2.5 µM. In addition, the IC50 in the data set on CEM-SS (Homo sapiens) was determined as 3.5 µM.
